Measurements taken from patent publication US7094909B2, “HIV protease inhibitors, compositions containing the same, their pharmaceutical uses and materials for their synthesis” (priority 2001, dated 2006).

Experiments:
[1] = target: T1, HIV-1 protease (Q7S mutant form) (Human immunodeficiency virus type 1 group M subtype B, UniProt P04585, Q495S); test: HIV-1 Protease RET assay; assay type: biochemical; details: Ave. Ki (nM), RET assay, Q7S enzyme, Morrison tight binding fit
T1 construct: made in house
In short: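 Q7S HIV-1 protease, refolded from urea, 2 nM active dimer with 5 μM EDANS/DABCYL peptide cleaved at Tyr-Pro; fluorescence 340/490 nm. 12 min at 37 °C in 0.1M sodium acetate pH 4.8, 1M NaCl, 10% DMSO. Ki from Morrison tight-binding fit.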

[2] = test system: HIV-1 (HIV-1 RF, HIV-1 NL4-3) in CEM-SS / MT-2 cells; test: Cytopathic effect (CPE) inhibition assay (XTT/MTT dye reduction); assay type: cell-based; details: Human immunodeficiency virus 1, NL43; read-out: Ave CPE EC50
In short: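 CEM-SS or MT-2 cells were infected with HIV-1 RF or NL4-3 (moi 0.025–0.819) and plated at 2×10^4 cells/well with half-log compound dilutions for 6 days. Viability was read by XTT formazan at 450 nm after 4 h. EC50 restores formazan to 50% of uninfected untreated cells, CC50 halves it in uninfected cells, and TI = CC50/EC50.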

[3] = test system: 461, 84V, 90M virus; test: Phenotypic susceptibility assay at Virologic, Inc.; assay type: cell-based, HIV-1; details: Human immunodeficiency virus 1, read-out: EC50 or IC50 (mM), values with asterisk (IC50)
Method: Compounds were tested in phenotypic susceptibility assays at Virologic, Inc., (See Petropoulos C. J., Parkin N. T., Limoli K. L., Lie Y. S., Wrin T., Huang W., Tian H., Smith D., Winslow G. A., Capon D J, Whitcomb J M. 2000, “A novel phenotypic drug susceptibility assay for human immunodeficiency virus type 1,” Antimicrob Agents Chemother 44(4):920–928) or using the assay described here. MT-2 cells were infected with either HIV-1 NL4-3 or HIV-1 NL4-3([…]) and incubated in the presence of serial 0.5 log dilutions of test compounds. Three days later, culture supernatants were collected and virus production, as determined by p24 ELISA, was assayed. Percent inhibition was calculated as p24 concentration in compound-treated samples as compared to infected, compound-free controls. Inhibition of viral replication is determined by measuring reduction in HIV p24 present in the culture supernatant, using a Beckman-Coulter p24HIV-1 Ag EIA kit and following the supplied protocol. Absorbance is read on a MRX microplate reader (Dynex Technologies). The EC50 was calculated as the concentration of compound that effected a decrease in the p24 production by infected, compound-treated cells to 50% of that produced by infected, compound-free cells.

**Q.** Which melting point does the source give for `COc1cccc(CNC(=O)[C@H]2N(C(=O)[C@@H](O)C(Cc3ccccc3)NC(=O)c3cccc(O)c3C)CSC2(C)C)c1` (single isomer, unassigned) here?
**A.** The melting point was 108 to 110 °C.

**Q.** What does the source list for `Cc1c(O)cccc1C(=O)N[C@@H](Cc1ccccc1)[C@H](O)C(=O)N1CSC(C)(C)[C@H]1C(=O)N[C@H]1CCCc2ccccc21` [Example A1, 3-[2-Hydroxy-3-(3-hydroxy-2-methyl-benzoylamino)-4-phenyl-butyryl]-5,5-dimethyl-thiazolidine-4-carboxylic acid (1,2,3,4-tetrahydro-naphthalen-1-yl)-amide]?
**A.** Ki [1]: 0.21 nM; EC50 [2]: 29 nM; melting point: 125 to 126 °C

**Q.** Which results are given for `Cc1c(O)cccc1C(=O)N[C@@H](Cc1ccccc1)[C@H](O)C(=O)N1CSC(C)(C)[C@H]1C(=O)N[C@@H]1CCCc2ccccc21` [Example A4, 3-[2-Hydroxy-3-(3-hydroxy-2-methyl-benzoylamino)-4-phenyl-butyryl]-5,5-dimethyl-thiazolidine-4-carboxylic acid (1,2,3,4-tetrahydro-naphthalen-1-yl)-amide]?
**A.** Ki [1]: 2.2 nM; EC50 [2]: 270 nM; melting point: 123 to 125 °C

**Q.** Which results are given for `Cc1c(O)cccc1C(=O)N[C@@H](Cc1ccccc1)[C@H](O)C(=O)N1CSC(C)(C)[C@H]1C(=O)NC[C@H]1CCCO1` [Example A12, (R)-3-((2S,3S)-2-Hydroxy-3-{[1-(3-hydroxy-2-methyl-phenyl)-methanoyl]-amino}-4-phenyl-butanoyl)-5,5-dimethyl-thiazolidine-4-carboxylic acid [(R)-1-(tetrahydro-furan-2-yl)methyl]-amide]?
**A.** Ki [1]: 5.5 nM; EC50 [2]: 127 nM; melting point: 105 to 107 °C

**Q.** For `Cc1c(O)cccc1C(=O)N[C@@H](Cc1ccccc1)[C@H](O)C(=O)N1CSC(C)(C)[C@H]1C(=O)N[C@@H]1CCOc2ccccc21` [Example A16, (R)-3-((2S,3S)-2-Hydroxy-3-{[1-(3-hydroxy-2-methyl-phenyl)-methanoyl]-amino}-4-phenyl-butanoyl)-5,5-dimethyl-thiazolidine-4-carboxylic acid (R)-chroman4-ylamide], which Ki [1] is on record?
**A.** The Ki was 0.43 nM.

**Q.** What about the EC50 [2] of the same compound?
**A.** The EC50 was 254 nM.

**Q.** What about the melting point of the same compound?
**A.** Its melting point is 135 to 136 °C.

**Q.** For `Cc1c(O)cccc1C(=O)N[C@@H](Cc1ccccc1)[C@H](O)C(=O)N1CSC(C)(C)[C@H]1C(=O)N[C@H]1CCOc2ccccc21` [Example A17, (R)-3-((2S,3S)-2-Hydroxy-3-{[1-(3-hydroxy-2-methyl-phenyl)-methanoyl]-amino}-4-phenyl-butanoyl)-5,5-dimethyl-thiazolidine-4-carboxylic acid (S)-chroman-4-ylamide], which Ki [1] is on record?
**A.** Its Ki is less than 0.1 nM.

**Q.** What about the EC50 [2] of the same compound?
**A.** Its EC50 is 24 nM.

**Q.** What about the melting point of the same compound?
**A.** The melting point was 135 to 136 °C.

**Q.** What about the IC50 [3] of the same compound?
**A.** The IC50 was 49 nM.

**Q.** For `Cc1c(O)cccc1C(=O)N[C@@H](Cc1ccccc1)[C@H](O)C(=O)N1CSC(C)(C)[C@H]1C(=O)N[C@@H]1CCSc2ccccc21` [Example A18, (R)-3-((2S,3S)-2-Hydroxy-3-{[1-(3-hydroxy-2-methyl-phenyl)-methanoyl]-amino}-4-phenyl-butanoyl)-5,5-dimethyl-thiazolidine-4-carboxylic acid (R)-thiochroman-4-ylamide], which Ki [1] is on record?
**A.** Its Ki is 0.3 nM.

**Q.** And the EC50 [2]?
**A.** Its EC50 is 27 nM.

**Q.** And the melting point?
**A.** Its melting point is 125 to 127 °C.

**Q.** Which Ki [1] does the source give for `Cc1c(O)cccc1C(=O)N[C@@H](Cc1ccccc1)[C@H](O)C(=O)N1CSC(C)(C)[C@H]1C(=O)N[C@H]1CCSc2ccccc21` [Example A19, (R)-3-((2S,3S)-2-Hydroxy-3-{[1-(3-hydroxy-2-methyl-phenyl)-methanoyl]-amino}-4-phenyl-butanoyl)-5,5-dimethyl-thiazolidine-4-carboxylic acid (S)-thiochroman-4-ylamide] here?
**A.** The Ki was 0.21 nM.

**Q.** What about the EC50 [2] of the same compound?
**A.** Its EC50 is 15 nM.

**Q.** What about the melting point of the same compound?
**A.** The melting point was 125 to 127 °C.

**Q.** With `Cc1c(O)cccc1C(=O)N[C@@H](Cc1ccccc1)[C@H](O)C(=O)N1CSC(C)(C)[C@H]1C(=O)N[C@@H]1CCc2ccccc21` [Example A29, (R)-3-((2S,3S)-2-Hydroxy-3-{[1-(3-hydroxy-2-methyl-phenyl)-methanoyl]-amino}-4-phenyl-butanoyl)-5,5-dimethyl-thiazolidine4-carboxylic acid (R)-indan-1-ylamide] as the compound, how does the Ki [1] read?
**A.** The Ki was 0.31 nM.

**Q.** And the EC50 [2]?
**A.** The EC50 was 118 nM.

**Q.** And the melting point?
**A.** The melting point was 128 to 130 °C.

**Q.** For `Cc1c(O)cccc1C(=O)N[C@@H](Cc1ccccc1)[C@H](O)C(=O)N1CSC(C)(C)[C@H]1C(=O)N[C@@H]1C=CCCC1` [Example A32, (R)-3-((2S,3S)-2-Hydroxy-3-{[1-(3-hydroxy-2-methyl-phenyl)-methanoyl]-amino}-4-phenyl-butanoyl)-5,5-dimethyl-thiazolidine-4-carboxylic acid (S)-cyclohex-2-enylamide], which Ki [1] is on record?
**A.** The Ki was less than 0.1 nM.

**Q.** And the EC50 [2]?
**A.** The EC50 was 12 nM.

**Q.** And the melting point?
**A.** The melting point was 177 to 179 °C.

**Q.** What about the IC50 [3] of the same compound?
**A.** The IC50 was 55 nM.

**Q.** Which Ki [1] does the source give for `Cc1c(O)cccc1C(=O)N[C@@H](Cc1ccccc1)[C@H](O)C(=O)N1CSC(C)(C)[C@H]1C(=O)NC1CCC(C)CC1` (stereo partly drawn) [Example A36, (R)-3-((2S,3S)-2-Hydroxy-3-{[1-(3-hydroxy-2-methyl-phenyl)-methanoyl]-amino}-4-phenyl-butanoyl)-5,5-dimethyl-thiazolidine-4-carboxylic acid (4-methyl-cyclohexyl)-amide] here?
**A.** Its Ki is 0.78 nM.

**Q.** And the EC50 [2]?
**A.** The EC50 was 343 nM.

**Q.** What about the melting point of the same compound?
**A.** The melting point was 192 to 194 °C.

**Q.** For `Cc1c(O)cccc1C(=O)N[C@@H](Cc1ccccc1)[C@H](O)C(=O)N1CSC(C)(C)[C@H]1C(=O)N[C@H]1C=CCCC1` [Example A38, (R)-3-((2S,3S)-2-Hydroxy-3-{[1-(3-hydroxy-2-methyl-phenyl)-methanoyl]-amino}-4-phenyl-butanoyl)-5,5-dimethyl-thiazolidine-4-carboxylic acid (R)-cyclohex-2-enylamide], which Ki [1] is on record?
**A.** Its Ki is less than 0.1 nM.

**Q.** And the EC50 [2]?
**A.** The EC50 was 38 nM.

**Q.** And the melting point?
**A.** Its melting point is 193 to 195 °C.

**Q.** What does the source list for `Cc1ccccc1CNC(=O)[C@H]1N(C(=O)[C@@H](O)[C@H](Cc2ccccc2)NC(=O)O[C@H]2CCOC2)CSC1(C)C` [Example B1, {1-Benzyl-3-[5,5-dimethyl-4-(2-methyl-benzylcarbamoyl)-thiazoldin-3-yl]-2-hydroxy-3-oxo-propyl}-carbamic acid tetrahydropfuran-3-yl-ester]?
**A.** Ki [1]: 0.27 nM; EC50 [2]: 49 nM; IC50 [3]: 236 nM

**Q.** With `Cc1ccccc1CNC(=O)[C@H]1N(C(=O)[C@@H](O)[C@H](Cc2ccccc2)NC(=O)c2cccc3c2CCN3)CSC1(C)C` [Example B6, 2,3-Dihydro-1H-indole-4-carboxylic acid {(1S,2S)-1-benzyl-3-[(R)-5,5-dimethyl-4-(2-methyl-benzylcarbamoyl)-thiazolidin-3-yl]-2-hydroxy-3-oxo-propyl}-amide] as the compound, how does the Ki [1] read?
**A.** The Ki was 0.31 nM.

**Q.** What about the EC50 [2] of the same compound?
**A.** The EC50 was 95 nM.

**Q.** What about the IC50 [3] of the same compound?
**A.** The IC50 was 405 nM.

**Q.** Which Ki [1] does the source give for `Cc1ccccc1CNC(=O)[C@H]1N(C(=O)[C@@H](O)[C@H](Cc2ccccc2)NC(=O)COc2c(C)cccc2C)CSC1(C)C` [Example B7, (R)-3-{(2S,3S)-3-[2-(2,6-Dimethylphenoxy)-ethanoylamino]-2-hydroxy-4-phenyl-butanoyl}-5,5-dimethylthiazolidine-4-carboxylic acid 2-methyl-benzylamide] here?
**A.** Its Ki is less than 0.1 nM.

**Q.** And the EC50 [2]?
**A.** Its EC50 is 265 nM.

**Q.** What about the IC50 [3] of the same compound?
**A.** The IC50 was 333 nM.

**Q.** Which Ki [1] does the source give for `CCCC(=O)N[C@@H](Cc1ccccc1)[C@H](O)C(=O)N1CSC(C)(C)[C@H]1C(=O)NCc1ccccc1C` [Example B20, (R)-3-((2S,3S)-3-Butyrylamino-2-hydroxy-4-phenyl-butyryl)-5,5-dimethyl-thiazolidine-4-carboxylic acid 2-methyl-benzylamide] here?
**A.** Its Ki is 2.1 nM.

**Q.** What about the EC50 [2] of the same compound?
**A.** Its EC50 is 1560 nM.

**Q.** What about the IC50 [3] of the same compound?
**A.** The IC50 was 2080 nM.

**Q.** With `C=CCNC(=O)[C@H]1N(C(=O)[C@@H](O)[C@H](Cc2ccccc2)NC(=O)c2cccc3c2CCN3)CSC1(C)C` [Example B21, 2,3-Dihydro-1H-indole-4-carboxylic acid [(1S,2S)-3-((R)-4-allylcarbamoyl-5,5-dimethyl-thiazolidin-3-yl)-1-benzyl-2-hydroxy-3-oxo-propyl]-amide] as the compound, how does the Ki [1] read?
**A.** Its Ki is 0.91 nM.

**Q.** And the EC50 [2]?
**A.** Its EC50 is 109 nM.

**Q.** And the IC50 [3]?
**A.** The IC50 was 547 nM.

**Q.** Which results are given for `Cc1cccc(C)c1OCC(=O)N[C@@H](Cc1ccccc1)[C@H](O)C(=O)N1CSC(C)(C)[C@H]1C(=O)N[C@H]1CCOc2ccccc21` [Example B30, (R)-3-{(2S,3S)-3-[2-(2,6-Dimethyl-phenoxy)-ethanoylamino]-2-hydroxy-4-phenyl-butanoyl}-5,5-dimethyl-thiazolidine-4-carboxylic acid (S)-chroman-4-ylamide]?
**A.** Ki [1]: 0.21 nM; EC50 [2]: 443 nM; melting point: 105 to 107 °C
